In ChEMBL document CHEMBL3286375, “Total synthesis and antiplasmodial activity of pohlianin C and analogues” (Bioorg Med Chem Lett, 2014):
Non-standard residues stand in square brackets, D forms with d. Residues, ends and D or L forms follow the SMILES beside them. 3Amb = NCc1cccc(C(=O)O)c1; 4Abz = Nc1ccc(C(=O)O)cc1; Ava = NCCCCC(=O)O

Columns and labels:
Plasmodium falciparum [1] = assay: Antiplasmodial activity against asexual blood stage chloroquine-sensitive Plasmodium falciparum 3D7 assessed as parasite growth inhibition by image-based assay; type: functional, organism-based
Plasmodium falciparum [2] = assay: Antiplasmodial activity against asexual blood stage chloroquine-sensitive Plasmodium falciparum 3D7 assessed as parasite growth inhibition at 40 uM by image-based assay relative to control; type: functional
Plasmodium falciparum [3] = assay: Antiplasmodial activity against Plasmodium falciparum assessed as parasite growth inhibition; type: functional, organism-based
Plasmodium falciparum [4] = assay: Antiplasmodial activity against asexual blood stage chloroquine-sensitive Plasmodium falciparum 3D7 assessed as parasite growth inhibition at 2 uM by image-based assay relative to control; type: functional

CC[C@H](C)[C@@H]1NC(=O)[C@H]([C@@H](C)O)NC(=O)CNC(=O)CNC(=O)[C@H](Cc2ccccc2)NC(=O)CNC(=O)[C@H](Cc2ccccc2)NC(=O)[C@H]([C@@H](C)CC)NC1=O (cyclo(FGFGGTII)) gave an IC50 (Plasmodium falciparum [1]) of 25 µM, an inhibition at 40 µM (Plasmodium falciparum [2]) of 78% and an IC50 (Plasmodium falciparum [3]) of 16 µM.

Work on C[C@@H]1CC[C@H]2[C@@H](C)C(=O)O[C@@H]3O[C@@]4(C)CC[C@@H]1[C@]32OO4 [ARTEMISININ] yielded an IC50 (Plasmodium falciparum [1]) of 0.013 µM and an inhibition at 2 µM (Plasmodium falciparum [4]) of 100%.

CC[C@H](C)[C@@H]1NC(=O)[C@H]([C@@H](C)O)NC(=O)c2cccc(c2)CNC(=O)[C@H](Cc2ccccc2)NC(=O)CNC(=O)[C@H](Cc2ccccc2)NC(=O)[C@H]([C@@H](C)CC)NC1=O (cyclo([3Amb]TIIFGF)) gave an IC50 (Plasmodium falciparum [1]) of 4 µM and an inhibition at 40 µM (Plasmodium falciparum [2]) of 86%.

Work on CC(C)C[C@@H]1NC(=O)CNC(=O)[C@H](CC(C)C)NC(=O)[C@@H]2CCCN2C(=O)[C@H](Cc2ccc(O)cc2)NC(=O)[C@H](CC(C)C)NC(=O)[C@H](CC(C)C)NC1=O (cyclo(GLLLYPL)) yielded an IC50 (Plasmodium falciparum [3]) of 25 µM.

Molecule CC(C)C[C@@H]1NC(=O)[C@H](CC(C)C)NC(=O)[C@H](C(C)C)NC(=O)CNC(=O)[C@H](CC(C)C)NC(=O)[C@@H]2CCCN2C(=O)[C@H](Cc2ccc(O)cc2)NC1=O (cyclo(GVLLYPL)) has an IC50 (Plasmodium falciparum [3]) of 57 µM.

CC[C@H](C)[C@@H]1NC(=O)[C@H]([C@@H](C)O)NC(=O)CCCCNC(=O)[C@H](Cc2ccccc2)NC(=O)CNC(=O)[C@H](Cc2ccccc2)NC(=O)[C@H]([C@@H](C)CC)NC1=O (cyclo([Ava]TIIFGF)) gave an IC50 (Plasmodium falciparum [1]) of 23 µM and an inhibition at 40 µM (Plasmodium falciparum [2]) of 87%.

Work on CC[C@H](C)[C@@H]1NC(=O)[C@H]([C@@H](C)O)NC(=O)c2ccc(cc2)NC(=O)[C@H](Cc2ccccc2)NC(=O)CNC(=O)[C@H](Cc2ccccc2)NC(=O)[C@H]([C@@H](C)CC)NC1=O (cyclo([4Abz]TIIFGF)) yielded an inhibition at 40 µM (Plasmodium falciparum [2]) of 12%.
